The target in assay [1] is Delta-type opioid receptor (Homo sapiens) (UniProt P41143). The settings on record: Compound concentration 10.0 uM.
Assay [2] deals with Histamine H4 receptor (Homo sapiens) (UniProt Q9H3N8). The settings on record: Compound concentration 10.0 uM.
Assay [3] deals with Alpha-2A adrenergic receptor (Homo sapiens, UniProt P08913). Briefly: GPCRScan assay: inhibition of Alpha2A. Details: radioligand conc. used [nm] 1.0 – 3.0, parental cells stable MDCK.
Assay [4] deals with T1, Alpha-2B adrenergic receptor (Homo sapiens, UniProt P18089).
T1 sequence (P18089 whole entry): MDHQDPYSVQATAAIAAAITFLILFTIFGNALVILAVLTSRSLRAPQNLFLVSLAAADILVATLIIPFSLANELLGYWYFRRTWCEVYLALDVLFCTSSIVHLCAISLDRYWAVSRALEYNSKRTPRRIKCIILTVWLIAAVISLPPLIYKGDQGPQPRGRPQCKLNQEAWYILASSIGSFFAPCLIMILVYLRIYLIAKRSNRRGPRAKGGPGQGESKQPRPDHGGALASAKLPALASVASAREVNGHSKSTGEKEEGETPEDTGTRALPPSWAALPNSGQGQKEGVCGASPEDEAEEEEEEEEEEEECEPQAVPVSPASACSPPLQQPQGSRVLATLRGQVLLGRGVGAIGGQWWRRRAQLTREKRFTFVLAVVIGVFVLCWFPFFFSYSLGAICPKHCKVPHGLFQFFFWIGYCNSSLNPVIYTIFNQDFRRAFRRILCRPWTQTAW
Briefly: GPCRScan assay: inhibition of Alpha2B. Also on record: radioligand conc. used [nm] 1.5 – 2.0, parental cells HEKT.

Assay [5] concerns the target T2, Beta-1 adrenergic receptor (Homo sapiens, UniProt P08588). Briefly: GPCRScan assay: inhibition of Beta1. Details: radioligand conc. used [nm] 0.1 – 0.2, parental cells CHO Flp-In.
Assay [6] concerns the target Glutamate receptor ionotropic, kainate (Rattus norvegicus) (UniProt P22756+Q01812+P42260+P42264+Q63273). Briefly: Inhibition of Glutamate, Kainate at 10 µM in the Eurofins-Panlabs radioligand binding assay (Eurofins_assay_232700). The settings on record: Compound concentration 10.0 uM.
For assay [7], the species on record is Homo sapiens. Briefly: Inhibition of Nicotinic Acetylcholine at compound concentration of 10.0 uM in the Eurofins-Panlabs radioligand binding assay (Eurofins_assay_258590). It counts as protein-complex assay. The settings on record: Compound concentration 10.0 uM.
The target in assay [8] is T1, Alpha-2B adrenergic receptor. Briefly: Inhibition of Adrenergic alpha2B at compound concentration of 10.0 uM in the Eurofins-Panlabs radioligand binding assay (Eurofins_assay_203710). Details: ligand concentration 2.5 nM, non-specific ligand with concentration 10 uM Prazosin, incubation time 60 min, incubation temperature 25 C.
In assay [9] the target is Melanocortin receptor 4 (Homo sapiens) (UniProt P32245). Briefly: Inhibition of Melanocortin MC4 at 10 µM in the Eurofins-Panlabs radioligand binding assay (Eurofins_assay_251350). Details: ligand concentration 0.02 nM. The settings on record: Compound concentration 10.0 uM.
Chain of Melanocortin receptor 4 (Homo sapiens) (P32245 whole entry): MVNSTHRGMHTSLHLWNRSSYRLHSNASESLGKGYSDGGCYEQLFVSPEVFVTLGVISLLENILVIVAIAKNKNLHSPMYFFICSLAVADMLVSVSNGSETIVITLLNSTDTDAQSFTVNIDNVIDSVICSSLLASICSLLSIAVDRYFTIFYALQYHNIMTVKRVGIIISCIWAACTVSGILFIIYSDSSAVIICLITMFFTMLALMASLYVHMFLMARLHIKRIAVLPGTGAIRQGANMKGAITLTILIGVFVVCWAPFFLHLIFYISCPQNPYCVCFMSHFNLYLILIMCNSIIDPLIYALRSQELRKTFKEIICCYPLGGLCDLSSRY
Assay [10] deals with T3, 5-hydroxytryptamine receptor 3A (Homo sapiens) (UniProt P46098).
T3 sequence (whole entry): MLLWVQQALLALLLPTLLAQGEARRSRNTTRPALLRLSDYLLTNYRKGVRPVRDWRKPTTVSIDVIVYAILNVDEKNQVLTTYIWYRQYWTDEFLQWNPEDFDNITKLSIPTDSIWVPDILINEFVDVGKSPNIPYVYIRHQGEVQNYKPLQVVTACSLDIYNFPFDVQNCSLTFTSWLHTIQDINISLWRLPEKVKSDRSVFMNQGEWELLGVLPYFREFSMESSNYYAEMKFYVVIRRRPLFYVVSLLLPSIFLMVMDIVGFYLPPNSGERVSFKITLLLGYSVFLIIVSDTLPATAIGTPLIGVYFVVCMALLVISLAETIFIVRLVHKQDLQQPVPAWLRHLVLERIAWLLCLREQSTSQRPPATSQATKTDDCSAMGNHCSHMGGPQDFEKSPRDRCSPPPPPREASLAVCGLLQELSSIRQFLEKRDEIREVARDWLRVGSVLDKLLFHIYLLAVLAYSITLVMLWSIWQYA
Briefly: Inhibition of Serotonin (5-Hydroxytryptamine) 5-HT3 at 10 µM in the Eurofins-Panlabs radioligand binding assay (Eurofins_assay_271910). Details: ligand concentration 0.69 nM. The settings on record: Compound concentration 10.0 uM.

For another assay, the species on record is Rattus norvegicus. Briefly: GABAA, Ro-15-1788, Hippocampus Eurofins-Panlabs radioligand binding assay. Details: ligand concentration 1 nM. The settings on record: Compound concentration 10.0 uM.
For assay [11], the species on record is Homo sapiens. Briefly: Glutamate, Metabotropic, mGlu5 Eurofins-Panlabs radioligand binding assay. The settings on record: Compound concentration 10.0 uM.
For assay [12], the target named is T2, Beta-1 adrenergic receptor. Briefly: Panlabs assay (ADRB1). Details: compound concentration 10 uM.
Assay [13] deals with Histamine H3 receptor (Homo sapiens) (UniProt Q9Y5N1). The settings on record: Compound concentration 10.0 uM.
Chain of Histamine H3 receptor (Homo sapiens) (Q9Y5N1 whole entry): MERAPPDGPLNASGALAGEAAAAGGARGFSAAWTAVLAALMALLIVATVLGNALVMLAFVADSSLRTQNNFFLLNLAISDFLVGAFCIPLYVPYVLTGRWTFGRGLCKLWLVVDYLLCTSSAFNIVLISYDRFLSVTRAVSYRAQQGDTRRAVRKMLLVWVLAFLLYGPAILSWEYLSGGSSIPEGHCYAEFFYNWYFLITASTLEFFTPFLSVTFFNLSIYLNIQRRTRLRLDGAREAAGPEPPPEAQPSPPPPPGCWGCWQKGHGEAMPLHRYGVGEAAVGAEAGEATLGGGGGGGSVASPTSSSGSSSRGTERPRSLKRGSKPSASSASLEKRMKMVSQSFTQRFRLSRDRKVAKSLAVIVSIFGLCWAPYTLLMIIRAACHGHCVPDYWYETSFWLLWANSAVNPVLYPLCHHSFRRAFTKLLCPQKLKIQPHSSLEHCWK
The target in assay [14] is Adenosine receptor A2a (Homo sapiens) (UniProt P29274). The settings on record: Compound concentration 10.0 uM.
Chain of Adenosine receptor A2a (Homo sapiens) (P29274 whole entry): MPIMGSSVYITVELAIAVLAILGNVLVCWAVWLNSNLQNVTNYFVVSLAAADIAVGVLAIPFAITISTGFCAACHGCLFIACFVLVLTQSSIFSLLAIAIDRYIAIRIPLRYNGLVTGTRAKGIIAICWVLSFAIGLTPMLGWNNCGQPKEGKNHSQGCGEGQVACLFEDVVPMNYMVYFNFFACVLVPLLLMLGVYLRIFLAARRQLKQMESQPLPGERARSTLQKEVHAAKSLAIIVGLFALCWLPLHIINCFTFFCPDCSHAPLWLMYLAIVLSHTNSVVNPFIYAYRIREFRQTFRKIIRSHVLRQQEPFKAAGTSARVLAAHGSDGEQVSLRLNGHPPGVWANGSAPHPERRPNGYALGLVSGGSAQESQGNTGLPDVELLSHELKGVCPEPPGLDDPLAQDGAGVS
For assay [15], the target named is Estrogen receptor (Homo sapiens) (UniProt P03372). The settings on record: Compound concentration 10.0 uM.
Chain of Estrogen receptor (Homo sapiens) (P03372 whole entry): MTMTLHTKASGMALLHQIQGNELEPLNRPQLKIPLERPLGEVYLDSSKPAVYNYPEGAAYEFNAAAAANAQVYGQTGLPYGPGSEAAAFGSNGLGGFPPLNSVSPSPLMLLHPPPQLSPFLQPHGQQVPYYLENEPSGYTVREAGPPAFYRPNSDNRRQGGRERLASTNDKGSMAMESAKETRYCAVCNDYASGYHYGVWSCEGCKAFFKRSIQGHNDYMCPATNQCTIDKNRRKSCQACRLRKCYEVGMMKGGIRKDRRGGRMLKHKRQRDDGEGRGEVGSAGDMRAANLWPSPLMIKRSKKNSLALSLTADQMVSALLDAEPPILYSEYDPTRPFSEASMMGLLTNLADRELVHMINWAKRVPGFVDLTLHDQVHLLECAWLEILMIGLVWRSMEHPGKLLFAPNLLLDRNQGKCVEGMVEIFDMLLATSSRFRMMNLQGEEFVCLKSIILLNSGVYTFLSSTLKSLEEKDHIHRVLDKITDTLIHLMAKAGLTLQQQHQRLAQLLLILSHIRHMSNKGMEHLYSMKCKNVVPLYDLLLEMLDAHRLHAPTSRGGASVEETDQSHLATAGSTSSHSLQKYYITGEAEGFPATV
Assay [16] concerns the target T4, Muscarinic acetylcholine receptor M2 (Homo sapiens) (UniProt P08172).
T4 sequence (whole entry): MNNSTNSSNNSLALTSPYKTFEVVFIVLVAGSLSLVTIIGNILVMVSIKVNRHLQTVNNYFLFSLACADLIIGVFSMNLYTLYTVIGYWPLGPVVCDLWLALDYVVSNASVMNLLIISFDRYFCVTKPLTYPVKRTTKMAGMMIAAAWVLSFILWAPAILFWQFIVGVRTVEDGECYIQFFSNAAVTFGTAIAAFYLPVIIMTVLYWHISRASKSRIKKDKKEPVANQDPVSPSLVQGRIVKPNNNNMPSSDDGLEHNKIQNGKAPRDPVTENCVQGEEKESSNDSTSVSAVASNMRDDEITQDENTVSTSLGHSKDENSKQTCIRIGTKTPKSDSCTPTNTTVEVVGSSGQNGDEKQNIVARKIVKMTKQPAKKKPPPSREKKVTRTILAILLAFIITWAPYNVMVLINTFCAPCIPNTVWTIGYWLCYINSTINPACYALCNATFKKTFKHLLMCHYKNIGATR
The settings on record: Compound concentration 10.0 uM.

Assay [17] deals with GABA-A receptor; anion channel (Rattus norvegicus) (UniProt O09028+P15431+P18506+P18508+P19969+P20236+P23574+P23576+P28471+P28473+P30191+P62813+P63079+P63138+Q91ZM7+Q9ES14). The settings on record: Compound concentration 10.0 uM.
Assay [18] concerns the target T5, 5-hydroxytryptamine receptor 2C (Homo sapiens) (UniProt P28335).
T5 sequence (whole entry): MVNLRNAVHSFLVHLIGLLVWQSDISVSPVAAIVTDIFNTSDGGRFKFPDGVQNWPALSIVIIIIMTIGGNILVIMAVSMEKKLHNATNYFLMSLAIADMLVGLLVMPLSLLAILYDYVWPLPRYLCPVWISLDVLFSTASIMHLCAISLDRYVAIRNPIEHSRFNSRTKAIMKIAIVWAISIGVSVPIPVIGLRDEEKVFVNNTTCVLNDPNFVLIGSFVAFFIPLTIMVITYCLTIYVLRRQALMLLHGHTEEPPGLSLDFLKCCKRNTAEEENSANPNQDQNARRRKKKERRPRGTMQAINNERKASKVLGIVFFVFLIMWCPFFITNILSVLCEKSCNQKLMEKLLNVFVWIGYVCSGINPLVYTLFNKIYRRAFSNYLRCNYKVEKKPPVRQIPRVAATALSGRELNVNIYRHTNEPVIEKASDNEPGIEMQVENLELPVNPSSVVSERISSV
The settings on record: Compound concentration 10.0 uM.

SMILES strings stand for the structures. pIC50, pKi: −log10 of the molar value.

T2 sequence (P08588 whole entry): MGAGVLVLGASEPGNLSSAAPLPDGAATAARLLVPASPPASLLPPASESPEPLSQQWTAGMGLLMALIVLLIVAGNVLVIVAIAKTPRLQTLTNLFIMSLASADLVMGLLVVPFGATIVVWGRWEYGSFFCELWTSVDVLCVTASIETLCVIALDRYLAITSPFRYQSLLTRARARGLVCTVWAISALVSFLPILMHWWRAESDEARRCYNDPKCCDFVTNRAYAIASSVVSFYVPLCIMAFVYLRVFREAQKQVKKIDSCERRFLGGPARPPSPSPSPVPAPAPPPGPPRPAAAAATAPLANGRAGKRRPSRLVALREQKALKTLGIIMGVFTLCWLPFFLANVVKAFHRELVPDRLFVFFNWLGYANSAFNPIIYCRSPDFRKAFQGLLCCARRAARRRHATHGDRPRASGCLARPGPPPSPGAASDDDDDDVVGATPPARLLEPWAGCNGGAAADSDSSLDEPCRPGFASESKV
Chain of Histamine H4 receptor (Homo sapiens) (Q9H3N8 whole entry): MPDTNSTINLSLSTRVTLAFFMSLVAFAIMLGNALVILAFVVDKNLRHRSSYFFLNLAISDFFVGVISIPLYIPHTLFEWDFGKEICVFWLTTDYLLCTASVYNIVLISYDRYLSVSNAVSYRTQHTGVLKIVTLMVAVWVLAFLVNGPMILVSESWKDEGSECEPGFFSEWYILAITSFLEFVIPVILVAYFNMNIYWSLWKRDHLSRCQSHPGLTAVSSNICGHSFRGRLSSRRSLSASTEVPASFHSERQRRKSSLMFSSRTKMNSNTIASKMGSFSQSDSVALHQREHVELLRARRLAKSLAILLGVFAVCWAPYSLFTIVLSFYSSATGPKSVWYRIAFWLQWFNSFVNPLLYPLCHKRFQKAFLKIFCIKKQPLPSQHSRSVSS
Chain of Delta-type opioid receptor (Homo sapiens) (P41143 whole entry): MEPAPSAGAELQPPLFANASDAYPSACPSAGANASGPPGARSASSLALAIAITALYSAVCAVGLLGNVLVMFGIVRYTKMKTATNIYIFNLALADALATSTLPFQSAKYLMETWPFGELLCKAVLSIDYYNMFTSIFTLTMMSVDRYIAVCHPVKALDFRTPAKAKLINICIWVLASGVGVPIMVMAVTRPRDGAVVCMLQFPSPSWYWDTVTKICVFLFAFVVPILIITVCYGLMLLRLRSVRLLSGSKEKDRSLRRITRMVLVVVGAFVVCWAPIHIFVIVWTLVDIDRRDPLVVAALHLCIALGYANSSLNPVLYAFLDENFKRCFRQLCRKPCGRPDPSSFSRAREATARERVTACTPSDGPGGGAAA
Chain of Alpha-2A adrenergic receptor (P08913 whole entry): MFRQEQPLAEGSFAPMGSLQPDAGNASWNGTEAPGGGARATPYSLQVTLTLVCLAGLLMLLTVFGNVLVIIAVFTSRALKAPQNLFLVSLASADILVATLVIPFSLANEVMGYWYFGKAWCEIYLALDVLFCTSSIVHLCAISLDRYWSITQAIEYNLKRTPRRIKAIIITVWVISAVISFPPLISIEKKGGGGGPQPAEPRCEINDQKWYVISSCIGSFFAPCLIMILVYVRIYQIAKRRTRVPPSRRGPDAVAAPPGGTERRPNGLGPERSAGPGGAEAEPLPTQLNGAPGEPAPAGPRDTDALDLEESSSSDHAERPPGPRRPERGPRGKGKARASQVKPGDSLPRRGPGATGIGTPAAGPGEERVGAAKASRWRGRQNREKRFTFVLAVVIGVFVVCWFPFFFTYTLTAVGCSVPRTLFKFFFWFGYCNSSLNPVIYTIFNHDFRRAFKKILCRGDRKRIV

Turning to `FC(F)(F)c1ccc2c(c1)nc(-c1cccnc1)n2C1CC1` [MSD-CYP11B2-Negative-control], the inhibition was -9.33% in assay [1] and -9.43% in assay [2].

In the case of `CC(C)(O)c1cncc(-c2nc3ccc(F)cc3n2C2CC2)c1` [MSD-CYP11B2], the pKi in assay [3] was 5.58; in assay [4], 5.84; in [5], 5.63; in assay [8], 5.67. Besides, the inhibition in [6] was -5%; in the assay filed under Homo sapiens [7], -3%; in assay [9], -1%; in [10] it was -4%; in the assay listed under Rattus norvegicus, 12%; in the assay filed under Homo sapiens [11], 25%. Also, the inhibition in [13] was -4.55%; in [14], -5%; in assay [15], 1%; in assay [16], 6%; in [17], 16%; in assay [18] it was 11%. Also, the pIC50 was 5.33 in assay [8] and 5.02 in assay [12].

The values are drawn from ChEMBL document CHEMBL4507294, “Data for DCP probe MSD-CYP11B2” (2021).
